Test results reported in patent US20250034200A1, “Prodrugs of Neurosteroid Analogs and Uses Thereof” (priority 2021, published 2025).
Values after ≈ are worked out from the molar mass of the structure shown. Where a name gives a salt, the structure may show the parent alone. Read-outs that look alike come from different tables or passages of the source.

What was measured:
[1] = Aqueous stability assay (HPLC, pseudo first-order half-life); format: physicochemical; conditions: DPBS pH 7.0-7.3, 1 mg/mL, room temperature; for half-life / half-life at 1 mg/mL: buffer, read-out: PBS t1/2 (converted)
Description: Aqueous stability experiments were performed on an Agilent 1100 HPLC equipped with an Agilent 1200 autosampler. HPLC grade solvents were exclusively used during analysis, with acetonitrile being purchased from Sigma Aldrich, and water and formic acid provided by Fisher Scientific. […]
[…] All mixtures were then sonicated for 5 min or stirred until complete dissolution was achieved. Any precipitate observed in sample solutions was filtered with a PTFE syringe filter prior to analysis. Immediately after sample preparation, injection by the HPLC autosampler was performed, which was recorded as the initial time point (t=0 min). Samples were then kept in the autosampler at room temperature and injected at designated intervals without additional filtration or sample modification. Next, the area of the parent peak in each chromatogram was determined by automated integration in the Agilent ChemStation software. Pseudo first-order half-lives were then ascertained by calculating the percent of the parent compound remaining after each time point. Plots of time (x-axis) vs. the natural logarithm of percent parent remaining (y-axis) were subsequently constructed to determine the slope. Finally, the aqueous stability was evaluated using the following equation:
The HPLC conditions were as follows: injection volume, 1 μL; column temperature: 40° C.; detector: 254 nm; stationary phase: Zorbax Eclipse XDB-C18 (4.6×150 mm, 5 μm); flow rate: 1 mL/min; mobile phase: 80-95% acetonitrile in H2O (0.1% formic acid).

[2] = Plasma stability assay (LC-MS/MS); format: in vitro ADME; conditions: human plasma, 37° C., 3 μM; for half-life: read-out: Plasma t1/2 (converted)
Description: Procaine and procainamide were purchased from Sigma Aldrich. HPLC-grade acetonitrile, water, methanol, and formic acid were purchased from Fisher Scientific. Human plasma (Cat. No. […]2N) was obtained from BIOIVT, and PBS (1×Dulbecco's, pH 7.4) from Thermo Fisher Scientific.
Test compounds were dissolved in DMSO to make a stock solution of 10 mM and then diluted to 500 μM in buffer or 70% methanol. Human plasma was thawed at ambient temperature and aliquoted (994.0 μL) to a 1.5 mL Eppendorf tube in duplicates (vials A and B) for each compound. The plasma was incubated at 37° C. for 10 min in an incubator shaker at 150 RPM; the reaction was initiated by addition of the test compound (6.0 μL), followed by vortex mixing. The total reaction volume was 1000 μL, the final organic solvent concentrations were […] (when 70% methanol was used for dilution) and 0.03% DMSO, and the final concentration of the test compound was 3 μM. The spiked plasma samples were incubated at 37° C. for 4 h. The reactions were terminated at time point 0, 15, 30, 60, 120, 180, and 240 min by taking a 100 μL aliquot from the test incubation mixture and immediately quenching it by adding it into ice-cold acetonitrile or methanol (150 μL) containing 2 μM internal standard (ISTD), followed by vortex mixing. The ISTD was d5-7-ethoxy coumarin. The samples were then centrifuged at 15000 RPM for 25 min at 4° C., and the supernatant was transferred to an LC-MS vial for analysis by LC-MS/MS. Each time point was tested in duplicates followed by in-between blank washes to avoid carryover and to equilibrate the column.
Procaine (poor plasma stability) and procainamide (good plasma stability) were used as controls at the same concentration as that of the test compound. These controls were run in parallel to test the assay's competency. Matrix blank was prepared by adding acetonitrile or methanol containing ISTD to plasma samples without any of the test or control compounds. Also, an additional control sample was made to simply monitor compound degradation in PBS buffer.
Below is a summary of samples prepared for a given test compound in a typical plasma stability assay: • Test compound (TC): 994 μL human plasma+6.0 μL TC (Vial A) 994 μL human plasma+6.0 μL TC (Vial B) • Control: 596 μL human plasma+3.6 μL (procaine+procainamide) • Blank matrix: 500 μL PBS buffer+100 μL human plasma • Additional control: 142 μL PBS buffer+0.9 μL TC • Quenching mixture: 150 μL acetonitrile or methanol with ISTD (2 μM) • Final volume: 250 μL (100 μL from the incubation mixture+150 μL quenching mixture; final ISTD conc.: 1.2 μM)
LC-MS/MS analysis was performed using Agilent 1260 Infinity II HPLC, coupled with an Agilent G6460 triple quadrupole mass spectrometer (Agilent Technologies, USA). The data were acquired and processed using the Agilent 6460 Quantitative Analysis data processing software.
Reverse-phase HPLC separation for each compound was achieved on an Agilent InfinityLab Poroshell 120 C18 column (2.1×50 mm, 2.7 μm) with a mobile phase composed of methanol/water with 0.1% formic acid or acetonitrile/water with 0.1% formic acid at a flow rate of 0.5 mL/min. Each method was developed in the presence of the ISTD. The column temperature was maintained at 40° C. The detection was operated using the Agilent Jet-Stream electrospray positive ionization under the multiple reaction monitoring mode. The mass spec conditions were as follows: dwell time 100 ms; gas flow 10 L/min; nebulizer pressure 45 psi; delta EMV 200 V.
Plots of time (x-axis) vs. the natural logarithm of percent parent remaining (y-axis) were subsequently constructed to determine the slope. Finally, the plasma stability was evaluated using the following equation: […]

[3] = Nephelometry (aqueous solubility); format: physicochemical; conditions: DPBS with 1% DMSO, aqueous buffer, kinetic from dmso stock, DPBS pH 7.0-7.3, 1% DMSO, 25° C.
Text: Well A1 of the plate contained 100% DMSO.

CCNCCN(CC)C(=O)O/N=C(\C)[C@H]1CC[C@H]2[C@@H]3CCC4=CC(=O)CC[C@]4(C)[C@H]3CC[C@]12C.Cl [54a, (E)-2-((8S,9S,10R,13S,14S,17S)-10,13-dimethyl-3-oxo-2,3,6,7,8,9,10,11,12,13,14,15,16,17-tetradecahydro-1H-cyclopenta[a]phenanthren-17-yl)-6-ethyl-4-oxa-3,6,9-triazaundec-2-en-5-one hydrochloride]
half-life [1]: > 24 h
Plasma % rmn at 2 h [2]: 71%
solubility at 90 min [3]: > 750 µM

CNCCN(C(=O)O/N=C(\C)[C@H]1CC[C@H]2[C@@H]3CCC4=CC(=O)CC[C@]4(C)[C@H]3CC[C@]12C)C1CCC1.O=C(O)C(F)(F)F [53c, (E)-5-cyclobutyl-9-((8S,9S,10R,13S,14S,17S)-10,13-dimethyl-3-oxo-2,3,6,7,8,9,10,11,12,13,14,15,16,17-tetradecahydro-1H-cyclopenta[a]phenanthren-17-yl)-7-oxa-2,5,8-triazadec-8-en-6-one 2,2,2-trifluoroacetate]
PBS t1/2 [1]: 11.79 ± 0.51 h
solubility at 90 min [3]: > 750 µM

C/C(=N\OC(=O)NCCN)[C@H]1CC[C@H]2[C@@H]3CCC4=CC(=O)CC[C@]4(C)[C@H]3CC[C@]12C [32a, (8S,9S,10R,13S,14S,17S)-17-((E)-1-((((2-aminoethyl)carbamoyl)oxy)imino)ethyl)-10,13-dimethyl-1,2,6,7,8,9,10,11,12,13,14,15,16,17-tetradecahydro-3H-cyclopenta[a]phenanthren-3-one hydrochloride]
half-life at 1 mg/mL [1]: > 30 h
Plasma t1/2 [2]: >2 h
solubility at 90 min [3]: > 750 µM

CNCCN(CCNC)C(=O)O/N=C(\C)[C@H]1CC[C@H]2[C@@H]3CCC4=CC(=O)CC[C@]4(C)[C@H]3CC[C@]12C.Cl.Cl [53i, (E)-9-((8S,9S,10R,13S,14S,17S)-10,13-dimethyl-3-oxo-2,3,6,7,8,9,10,11,12,13,14,15,16,17-tetradecahydro-1H-cyclopenta[a]phenanthren-17-yl)-5-(2-(methylamino)ethyl)-7-oxa-2,5,8-triazadec-8-en-6-one dihydrochloride]
PBS t1/2 [1]: 1.51 ± 0.05 h
solubility at 90 min [3]: > 750 µM

CNCCN(CCN(C)C)C(=O)O/N=C(\C)[C@H]1CC[C@H]2[C@@H]3CCC4=CC(=O)CC[C@]4(C)[C@H]3CC[C@]12C.O=C(O)C(F)(F)F [53f, (E)-9-((8S,9S,10R,13S,14S,17S)-10,13-dimethyl-3-oxo-2,3,6,7,8,9,10,11,12,13,14,15,16,17-tetradecahydro-1H-cyclopenta[a]phenanthren-17-yl)-2-methyl-5-(2-(methylamino)ethyl)-7-oxa-2,5,8-triazadec-8-en-6-one 2,2,2-trifluoroacetate]
PBS t1/2 [1]: 2.17 ± 0.02 h
solubility at 90 min [3]: > 500 µM

CNCCCN(C)C(=O)O/N=C(\C)[C@H]1CC[C@H]2[C@@H]3CCC4=CC(=O)CC[C@]4(C)[C@H]3CC[C@]12C.Cl [compound 39, (E)-10-((8S,9S,10R,13S,14S,17S)-10,13-dimethyl-3-oxo-2,3,6,7,8,9,10,11,12,13,14,15,16,17-tetradecahydro-1H-cyclopenta[a]phenanthren-17-yl)-6-methyl-8-oxa-2,6,9-triazaundec-9-en-7-one hydrochloride]
half-life ([1]; d (days)): > 720 h
Plasma t1/2 [2]: >4 h

C/C(=N\OC(=O)N(CCN)CCN)[C@H]1CC[C@H]2[C@@H]3CCC4=CC(=O)CC[C@]4(C)[C@H]3CC[C@]12C.O=C(O)C(F)(F)F.O=C(O)C(F)(F)F [53j, (8S,9S,10R,13S,14S,17S)-17-((E)-1-(((bis(2-aminoethyl)carbamoyl)oxy)imino)ethyl)-10,13-dimethyl-1,2,6,7,8,9,10,11,12,13,14,15,16,17-tetradecahydro-3H-cyclopenta[a]phenanthren-3-one bis(2,2,2-trifluoroacetate)]
PBS t1/2 [1]: 10.13 ± 0.41 h
solubility at 90 min [3]: > 750 µM

C/C(=N\OC(=O)N(CCNC(C)(C)C)C(C)(C)C)[C@H]1CC[C@H]2[C@@H]3CCC4=CC(=O)CC[C@]4(C)[C@H]3CC[C@]12C.Cl [54c, (E)-6-(tert-butyl)-2-((8S,9S,10R,13S,14S,17S)-10,13-dimethyl-3-oxo-2,3,6,7,8,9,10,11,12,13,14,15,16,17-tetradecahydro-1H-cyclopenta[a]phenanthren-17-yl)-10,10-dimethyl-4-oxa-3,6,9-triazaundec-2-en-5-one hydrochloride]
half-life [1]: > 24 h
Plasma % rmn at 2 h [2]: 93%

C/C(=N\OC(=O)NC[C@@H]1CCCCN1)[C@H]1CCC2[C@@H]3CCC4=CC(=O)CC[C@]4(C)[C@H]3CC[C@@]21C (stereo partly drawn) [32i, (8S,9S,10R,13S,17S)-10,13-dimethyl-17-((E)-1-((((((S)-piperidin-2-yl)methyl)carbamoyl)oxy)imino)ethyl)-1,2,6,7,8,9,10,11,12,13,14,15,16,17-tetradecahydro-3H-cyclopenta[a]phenanthren-3-one hydrochloride]
half-life at 1 mg/mL ([1]; d (days)): 684 h
solubility at 90 min [3]: > 750 µM

C/C(=N\OC(=O)N(C)CCO)[C@H]1CC[C@H]2[C@@H]3CCC4=CC(=O)CC[C@]4(C)[C@H]3CC[C@]12C [compound 33, (8S,9S,10R,13S,14S,17S)-17-((E)-1-((((2-hydroxyethyl)(methyl)carbamoyl)oxy)imino)ethyl)-10,13-dimethyl-1,2,6,7,8,9,10,11,12,13,14,15,16,17-tetradecahydro-3H-cyclopenta[a]phenanthren-3-one]
half-life [1]: 38.5 h
solubility at 90 min [3]: 124 ± 3.28 µM (≈ 53.3 µg/mL)

C/C(=N\OC(=O)N(C)CCNCCOC(F)(F)F)[C@H]1CC[C@H]2[C@@H]3CCC4=CC(=O)CC[C@]4(C)[C@H]3CC[C@]12C.Cl [compound 41, (E)-12-((8S,9S,10R,13S,14S,17S)-10,13-dimethyl-3-oxo-2,3,6,7,8,9,10,11,12,13,14,15,16,17-tetradecahydro-1H-cyclopenta[a]phenanthren-17-yl)-1,1,1-trifluoro-8-methyl-2,10-dioxa-5,8,11-triazatridec-11-en-9-one hydrochloride]
half-life [1]: 28.5 ± 1.8 h
half-life [2]: 1.1 h

CNC[C@@H]1CCCN1C(=O)O/N=C(\C)[C@H]1CCC2[C@@H]3CCC4=CC(=O)CC[C@]4(C)[C@H]3CC[C@@]21C.Cl (stereo partly drawn) [32k, 1-((2S)-1-(((((E)-1-((8S,9S,10R,13S,17S)-10,13-dimethyl-3-oxo-2,3,6,7,8,9,10,11,12,13,14,15,16,17-tetradecahydro-1H-cyclopenta[a]phenanthren-17-yl)ethylidene)amino)oxy)carbonyl)pyrrolidin-2-yl)-N-methylmethanaminium chloride]
half-life ([1]; d (days)): > 720 h
half-life [2]: > 4 h
